Publication PMC10582335 (Frontiers in Pharmacology, 2023)

Assays:
[1] = cited from earlier work
[2] = Stability in rat plasma under storage and processing conditions (QC samples, UPLC-MS/MS); conditions: n = 6
Procedure: The stability of plasma samples was validated by the QC samples at three concentration levels in six replicates under various storage and processing conditions: autosampler for 24 h after preprocessing, room temperature for 8 h, −80°C for 30 days, and three freeze-thaw cycles (−80°C to room temperature). The samples were verified to be stable if the deviation of the samples was not more than ±15% of the standard concentration.

[3] = Freeze-thaw stability for three times, high QC (nominal 150 almonertinib, 800 apixaban, 1,500 rivaroxaban ng/mL)
[4] = Freeze-thaw stability for three times, low QC (nominal 1 almonertinib, 2 apixaban, 10 rivaroxaban ng/mL)
[5] = Freeze-thaw stability for three times, medium QC (nominal 80 almonertinib, 400 apixaban, 800 rivaroxaban ng/mL)
[6] = Room temperature for 8 h, high QC (nominal 150 almonertinib, 800 apixaban, 1,500 rivaroxaban ng/mL)
[7] = Room temperature for 8 h, low QC (nominal 1 almonertinib, 2 apixaban, 10 rivaroxaban ng/mL)
[8] = Room temperature for 8 h, medium QC (nominal 80 almonertinib, 400 apixaban, 800 rivaroxaban ng/mL)
[9] = −80°C for 30 days, high QC (nominal 150 almonertinib, 800 apixaban, 1,500 rivaroxaban ng/mL)
[10] = −80°C for 30 days, low QC (nominal 1 almonertinib, 2 apixaban, 10 rivaroxaban ng/mL)
[11] = −80°C for 30 days, medium QC (nominal 80 almonertinib, 400 apixaban, 800 rivaroxaban ng/mL)

SMILES: C=CC(=O)Nc1cc(Nc2nccc(-c3cn(C4CC4)c4ccccc34)n2)c(OC)cc1N(C)CCN(C)C [almonertinib, Almonertinib]
- half-life ([1]; almonertinib, ref Yang et al., 2020): 30 to 35 h
- Stability: Accuracy (RE%) [2, 3]: −2.56%
- Stability: measured concentration, Mean ± SD [2, 3]: 146.17 ± 6.68 ng/mL
- Stability: Accuracy (RE%) [2, 4]: 1.47%
- Stability: measured concentration, Mean ± SD [2, 4]: 1.01 ± 0.09 ng/mL
- Stability: Accuracy (RE%) [2, 5]: 2.13%
- Stability: measured concentration, Mean ± SD [2, 5]: 81.7 ± 2.27 ng/mL
- Stability: Accuracy (RE%) [2, 6]: −1.67%
- Stability: measured concentration, Mean ± SD [2, 6]: 147.50 ± 9.83 ng/mL
- Stability: Accuracy (RE%) [2, 7]: 0.97%
- Stability: measured concentration, Mean ± SD [2, 7]: 1.01 ± 0.08 ng/mL
- Stability: Accuracy (RE%) [2, 8]: 0.60%
- Stability: measured concentration, Mean ± SD [2, 8]: 80.48 ± 6.42 ng/mL
- Stability: Accuracy (RE%) [2, 9]: −2.22%
- Stability: measured concentration, Mean ± SD [2, 9]: 146.67 ± 10.63 ng/mL
- Stability: Accuracy (RE%) [2, 10]: 2.33%
- Stability: measured concentration, Mean ± SD [2, 10]: 1.02 ± 0.10 ng/mL
- Stability: Accuracy (RE%) [2, 11]: 0.65%
- Stability: measured concentration, Mean ± SD [2, 11]: 80.52 ± 3.47 ng/mL

SMILES: COc1ccc(-n2nc(C(N)=O)c3c2C(=O)N(c2ccc(N4CCCCC4=O)cc2)CC3)cc1 [apixaban, Apixaban]
- time of the maximal blood concentration after oral intake ([1]; (±1 h), each of two drugs, ref Steffel et al., 2021): 2 to 3 h
- time to reach maximum plasma concentrations ([1]; after oral administration, ref Kubitza et al., 2005a, Kubitza et al., 2005b, Raghavan et al., 2009): 2 to 4 h
- renal excretion as share of the total clearance ([1]; apixaban, ref Byon et al., 2019): approximately 27%
- Stability: Accuracy (RE%) [2, 3]: 0.04%
- Stability: measured concentration, Mean ± SD [2, 3]: 800.33 ± 24.72 ng/mL
- Stability: Accuracy (RE%) [2, 4]: −3.42%
- Stability: measured concentration, Mean ± SD [2, 4]: 1.93 ± 0.13 ng/mL
- Stability: Accuracy (RE%) [2, 5]: 2.67%
- Stability: measured concentration, Mean ± SD [2, 5]: 410.67 ± 12.03 ng/mL
- Stability: Accuracy (RE%) [2, 6]: 0.60%
- Stability: measured concentration, Mean ± SD [2, 6]: 804.83 ± 20.23 ng/mL
- Stability: Accuracy (RE%) [2, 7]: 3.83%
- Stability: measured concentration, Mean ± SD [2, 7]: 2.08 ± 0.07 ng/mL
- Stability: Accuracy (RE%) [2, 8]: 6.08%
- Stability: measured concentration, Mean ± SD [2, 8]: 424.33 ± 9.35 ng/mL
- Stability: Accuracy (RE%) [2, 9]: −2.15%
- Stability: measured concentration, Mean ± SD [2, 9]: 782.83 ± 22.19 ng/mL
- Stability: Accuracy (RE%) [2, 10]: 0.83%
- Stability: measured concentration, Mean ± SD [2, 10]: 2.02 ± 0.08 ng/mL
- Stability: Accuracy (RE%) [2, 11]: 0.13%
- Stability: measured concentration, Mean ± SD [2, 11]: 400.50 ± 19.99 ng/mL
